How the values were obtained:
[1] = tested on: Methicillin-resistant Staphylococcus aureus (MRSA); assay: Detection of MRSA strains (colored colonies) on chromID MRSA based media with alpha-glucosidase substrates and antibiotics; assay type: cell-based; details: Example B, alpha-glucosidase substrates
Procedure: The media tested in the experiments hereinafter were media comprising the chromID MRSA medium (bioMérieux ref. 43 451) as basic medium, and comprising the following elements: • Medium T: chromID MRSA control medium (ref. 43 451), comprising in particular an X-N-methyl-alpha-glucoside substrate, at a concentration of 0.1 g/l, and Cefoxitin at 4 mg/1. • Medium S: medium T, also comprising an X-alpha-glucoside substrate, at a concentration of 25, 37, 45 or 50 mg/l. • Medium A: medium S (X-alpha-glucoside concentration: 45 mg/l), the Cefoxitin being substituted with Ceftriaxone, at a concentration of 1, 2, 4, 8, 16, 32 mg/l. • Medium B: medium S (X-alpha-glucoside concentration: 45 mg/l), the Cefoxitin being substituted with Cefotaxime at a concentration of 1, 2, 4, 8, 16, 32 mg/l. • Medium C: medium S (X-alpha-glucoside concentration: 45 mg/l), the Cefoxitin being substituted with Ertapenem at a concentration of 0.1, 0.25, 0.5, 0.75, 1 mg/l. • Medium D: medium S (X-alpha-glucoside concentration: 45 mg/l), the Cefoxitin being substituted with Cefoperazone at a concentration of 0.5, 1, 1.5, 2 mg/l. • Medium E: medium S (X-alpha-glucoside concentration: 45 mg/l), the Cefoxitin being substituted with Cefpodoxime at a concentration of 0.5, 1, 1.5, 2 mg/l. • Medium F: medium S (X-alpha-glucoside concentration: 45 mg/l), the Cefoxitin being substituted with a Cefoxitin/Cefotaxime concentration at the concentrations below:
• Medium G: medium S (X-alpha-glucoside concentration: 45 mg/l), the Cefoxitin being substituted with a Cefoxitin/Ceftriaxone combination at the concentrations below:
• Medium H: medium S (X-alpha-glucoside concentration: 45 mg/l), the Cefoxitin being substituted with a Cefoxitin/Ertapenem combination at the concentrations below:
• Medium I: medium S (X-alpha-glucoside concentration: 45 mg/l), the Cefoxitin being substituted with a Cefoxitin/Cefpodoxime combination at the concentrations below:
• Medium J: medium S (X-alpha-glucoside concentration: 45 mg/1), the Cefoxitin being substituted with a Cefoxitin/Cefoperazone combination at the concentrations below:
• Medium K: medium S (X-alpha-glucoside concentration: 45 mg/l), the Cefoxitin being substituted with a Cefoxitin/Cefotaxime combination, at the concentrations below, also comprising a mixture of inhibitors that favour the growth of Staphylococcus aureus.
• Medium L: medium S (X-alpha-glucoside concentration: 45 mg/l), the Cefoxitin being substituted with Cefdinir at a concentration of 0.25, 0.5, 1, 2, 4, 8 mg/l. • Medium M: medium S (X-alpha-glucoside concentration: 45 mg/l), the Cefoxitin being substituted with a Cefoxitin/Cefdinir combination at the concentrations below: […]
The strains detected correspond to the strains forming colored colonies on the medium.

[2] = tested on: MSSAs; assay: Sub-inhibitory concentration: below the antibiotic concentration required for inhibition of MSSAs in a culture medium; assay type: cell-based, Staphylococcus aureus; details: culture medium such as chromID S. aureus medium
Procedure: The sub-inhibitory concentration is intended to mean a concentration below the concentration of antibiotic required for inhibition of MSSAs, in a culture medium suitable for searching for S. aureus using a biological sample, such as the chromID™ S. aureus medium (bioMerieux). This concentration is below approximately 3 mg/l in the case of Cefoxitin, approximately 2 mg/l in the case of Cefotaxime, approximately 1 mg/l in the case of Ertapenem, approximately 2 mg/l in the case of Cefoperazone, approximately 2 mg/l in the case of Cefpodoxime, and approximately 1 mg/l in the case of Cefdinir.

| SMILES | Sensitivity and specificity, MRSAs distinguished from MSSAs (in words) [1] | Sub-inhibitory concentration [2] [mg/L] |
| --- | --- | --- |
| CO/N=C(\C(=O)N[C@@H]1C(=O)N2C(C(=O)O)=C(CSc3nc(=O)c(=O)[nH]n3C)CS[C@H]12)c1csc(N)n1 [Ceftriaxone] | did not make it possible to obtain, on their own, a sensitivity and a specificity enabling MRSAs to be distinguished from MSSAs |  |
| C[C@@H](O)[C@H]1C(=O)N2C(C(=O)O)=C(S[C@@H]3CN[C@H](C(=O)Nc4cccc(C(=O)O)c4)C3)[C@H](C)[C@H]12 [Ertapenem] | did not make it possible to obtain, on their own, a sensitivity and a specificity enabling MRSAs to be distinguished from MSSAs |  |
| CO[C@@]1(NC(=O)Cc2cccs2)C(=O)N2C(C(=O)O)=C(COC(N)=O)CS[C@@H]21 [Cefoxitin] |  | < 3 |
| CO/N=C(\C(=O)N[C@@H]1C(=O)N2C(C(=O)O)=C(COC(C)=O)CS[C@H]12)c1csc(N)n1 [Cefotaxime] | did not make it possible to obtain, on their own, a sensitivity and a specificity enabling MRSAs to be distinguished from MSSAs |  |
| CCN1CCN(C(=O)N[C@@H](C(=O)N[C@@H]2C(=O)N3C(C(=O)O)=C(CSc4nnnn4C)CS[C@H]23)c2ccc(O)cc2)C(=O)C1=O [Cefoperazone] | did not make it possible to obtain, on their own, a sensitivity and a specificity enabling MRSAs to be distinguished from MSSAs |  |

Reference: patent publication US8415115B2, “Reaction medium for methicillin-resistant Staphylococcus aureus (MRSA) bacteria” (Biomerieux, priority 2008, dated 2013)
